Test [1] concerns the target T1, Calpain-2 catalytic subunit (Sus scrofa, UniProt P43367).
T1 sequence (P43367 whole entry): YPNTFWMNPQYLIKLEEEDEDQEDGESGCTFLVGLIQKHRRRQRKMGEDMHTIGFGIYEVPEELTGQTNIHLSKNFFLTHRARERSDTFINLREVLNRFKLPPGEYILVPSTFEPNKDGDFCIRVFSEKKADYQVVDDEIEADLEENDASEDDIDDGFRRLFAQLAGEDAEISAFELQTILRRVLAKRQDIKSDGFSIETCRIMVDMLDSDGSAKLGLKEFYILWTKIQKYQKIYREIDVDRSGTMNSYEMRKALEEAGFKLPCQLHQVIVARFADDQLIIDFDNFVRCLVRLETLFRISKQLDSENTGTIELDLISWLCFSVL
In words: m-calpain protease blockers, concentration series – biochemical, fluorogenic peptide substrate, dose response (AID 1420). It is filed as functional.

For test [2], the target named is Bifunctional protein GlmU (Mycobacterium tuberculosis, UniProt P9WMN3). In words: Inhibitors of Mycobacterial Glucosamine-1-phosphate acetyl transferase (GlmU). Secondary screen. The arrangement: species or system Mycobacterium tuberculosis H37Rv.
Bifunctional protein GlmU, sequence (P9WMN3 whole entry): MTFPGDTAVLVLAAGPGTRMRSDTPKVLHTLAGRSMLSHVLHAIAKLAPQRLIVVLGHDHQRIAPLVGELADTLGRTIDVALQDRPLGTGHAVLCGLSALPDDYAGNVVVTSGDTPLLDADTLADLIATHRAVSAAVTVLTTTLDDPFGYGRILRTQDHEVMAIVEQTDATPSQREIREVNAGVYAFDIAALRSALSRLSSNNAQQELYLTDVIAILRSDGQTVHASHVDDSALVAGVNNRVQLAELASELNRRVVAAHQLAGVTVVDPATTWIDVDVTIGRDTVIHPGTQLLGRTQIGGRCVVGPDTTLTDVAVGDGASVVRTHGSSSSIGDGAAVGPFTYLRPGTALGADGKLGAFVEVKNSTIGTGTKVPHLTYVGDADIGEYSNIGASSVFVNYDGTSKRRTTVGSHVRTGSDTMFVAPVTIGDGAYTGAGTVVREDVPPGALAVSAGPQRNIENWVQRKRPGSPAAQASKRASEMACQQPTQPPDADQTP
For test [3], the target named is Induced myeloid leukemia cell differentiation protein Mcl-1 (Homo sapiens, UniProt Q07820). Type of test: functional.
Induced myeloid leukemia cell differentiation protein Mcl-1, sequence (Q07820 whole entry): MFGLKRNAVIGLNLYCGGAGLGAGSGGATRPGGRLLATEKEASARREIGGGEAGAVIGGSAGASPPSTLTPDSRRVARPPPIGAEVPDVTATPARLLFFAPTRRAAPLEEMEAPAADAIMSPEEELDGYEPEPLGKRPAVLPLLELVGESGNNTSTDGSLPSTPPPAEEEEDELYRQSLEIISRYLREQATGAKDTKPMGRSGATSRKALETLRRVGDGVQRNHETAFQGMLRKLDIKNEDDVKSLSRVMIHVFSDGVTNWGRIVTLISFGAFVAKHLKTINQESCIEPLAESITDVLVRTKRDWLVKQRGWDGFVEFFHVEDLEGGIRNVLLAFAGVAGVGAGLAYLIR
A further test deals with T2, Caspase-6 (Homo sapiens, UniProt P55212).
T2 sequence (P55212 whole entry): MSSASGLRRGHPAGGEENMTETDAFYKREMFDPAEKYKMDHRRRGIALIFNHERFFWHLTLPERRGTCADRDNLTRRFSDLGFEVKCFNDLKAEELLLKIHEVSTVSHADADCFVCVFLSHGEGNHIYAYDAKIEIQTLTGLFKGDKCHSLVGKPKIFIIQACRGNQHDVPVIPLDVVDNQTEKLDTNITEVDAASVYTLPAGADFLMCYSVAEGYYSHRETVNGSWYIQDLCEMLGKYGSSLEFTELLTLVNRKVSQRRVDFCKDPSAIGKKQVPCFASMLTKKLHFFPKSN
In words: inhibition of CASP6 peptide cleavage – biochemical, VEID-R110 fluorescence, cherry-pick, dose response (AID 720632).

The target in test [4] is T3, SUMO-activating enzyme (Homo sapiens, UniProt Q9UBT2). In words: blockers of UBC9-mediated SUMO conjugation – biochemical, AlphaScreen, SUMOylation inhibitor project, confirmation (AID 2018). It is filed as functional. Background: In Alpha technology, singlet oxygen from a donor bead excites a nearby acceptor bead.
T3 sequence (Q9UBE0 whole entry): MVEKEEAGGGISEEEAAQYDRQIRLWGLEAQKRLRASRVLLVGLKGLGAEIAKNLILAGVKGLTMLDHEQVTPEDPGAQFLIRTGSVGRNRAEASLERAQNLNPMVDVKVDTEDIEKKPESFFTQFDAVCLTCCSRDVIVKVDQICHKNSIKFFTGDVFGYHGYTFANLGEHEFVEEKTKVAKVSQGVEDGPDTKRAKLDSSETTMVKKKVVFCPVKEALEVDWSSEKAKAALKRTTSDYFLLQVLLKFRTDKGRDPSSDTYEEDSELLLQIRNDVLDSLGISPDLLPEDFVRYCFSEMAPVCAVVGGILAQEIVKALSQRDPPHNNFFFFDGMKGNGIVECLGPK
T3 sequence (Q9UBT2 whole entry): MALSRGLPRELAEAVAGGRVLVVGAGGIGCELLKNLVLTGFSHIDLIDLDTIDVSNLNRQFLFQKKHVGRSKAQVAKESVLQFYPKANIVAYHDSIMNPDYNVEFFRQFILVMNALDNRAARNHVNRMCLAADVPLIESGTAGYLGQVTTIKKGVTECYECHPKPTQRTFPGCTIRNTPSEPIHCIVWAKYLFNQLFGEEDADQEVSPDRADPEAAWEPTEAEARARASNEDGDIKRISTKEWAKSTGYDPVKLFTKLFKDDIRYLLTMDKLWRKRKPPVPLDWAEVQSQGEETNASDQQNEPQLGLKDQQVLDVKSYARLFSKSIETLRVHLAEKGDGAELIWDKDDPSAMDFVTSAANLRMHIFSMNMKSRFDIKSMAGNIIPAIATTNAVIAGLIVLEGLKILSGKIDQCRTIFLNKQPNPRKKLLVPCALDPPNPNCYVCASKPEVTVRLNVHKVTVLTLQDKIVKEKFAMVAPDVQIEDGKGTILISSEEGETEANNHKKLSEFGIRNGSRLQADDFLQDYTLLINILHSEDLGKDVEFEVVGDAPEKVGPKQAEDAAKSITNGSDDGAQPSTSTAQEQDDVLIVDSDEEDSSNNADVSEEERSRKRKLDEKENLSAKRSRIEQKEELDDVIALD
Test [5] has as its target T3, SUMO-activating enzyme. In words: blockers of SAE1/SAE2–UBC9 SUMO transfer – biochemical, HTRF, uHTS, primary screen (AID 2006). It is filed as protein-complex assay. In general terms: In TR-FRET formats the signal depends on donor and acceptor labels being close together.
A further test addresses Transthyretin (Homo sapiens, UniProt P02766). In words: Luminescence-based cell-based high throughput dose response assay to identify activators of Transthyretin (TTR) transcription. It is filed as functional.
The target of test [6] is RNA-editing ligase 1, mitochondrial (Trypanosoma brucei brucei, UniProt P86926). In words: inhibition of trypanosome RNA editing ligase – biochemical, fluorescence, Trypanosoma brucei, dose response (AID 1117295). It is filed as functional.
RNA-editing ligase 1, mitochondrial, sequence (P86926 whole entry): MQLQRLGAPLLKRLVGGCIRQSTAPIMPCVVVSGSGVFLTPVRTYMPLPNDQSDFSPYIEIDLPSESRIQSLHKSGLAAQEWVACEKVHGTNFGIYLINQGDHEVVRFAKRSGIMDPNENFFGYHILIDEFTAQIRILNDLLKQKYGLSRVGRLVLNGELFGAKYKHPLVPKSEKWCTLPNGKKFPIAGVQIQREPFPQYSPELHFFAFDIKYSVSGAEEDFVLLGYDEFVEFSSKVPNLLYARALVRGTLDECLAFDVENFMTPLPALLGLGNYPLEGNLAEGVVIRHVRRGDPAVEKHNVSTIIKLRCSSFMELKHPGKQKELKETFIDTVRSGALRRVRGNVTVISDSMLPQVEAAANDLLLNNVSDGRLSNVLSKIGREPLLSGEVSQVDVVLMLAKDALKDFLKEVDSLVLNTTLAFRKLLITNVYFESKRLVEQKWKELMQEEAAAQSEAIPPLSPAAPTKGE
Test [7] is described as follows: growth inhibition of PfATP4-mutant resistant parasites – NITD609-resistant line, SYBR Green, dry powder, dose response (AID 1159571).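 Also: parasites synchronized at ring stage by sorbitol before testing.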 It is filed as functional, cell-based.
Test [8] in a line: toxicity to human HepG2 hepatoma cells – cell-based, plate reader, dry powder samples, cytotoxicity control, dose response (AID 1159569).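 Also: inhibitor potency with signal falling toward the positive control level.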 It is filed as functional.
Test [9] is described as follows: P. falciparum Dd2 growth inhibitors, dose response, SYBR Green, cherry-picked samples (AID 1159567). It is filed as functional, cell-based.
Test [10] can be described thus: growth inhibition of yeast DHODH-expressing 3D7 parasites – SYBR Green, dry powder samples, dose response (AID 1159570).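 Also: parasite growth measured after 72 hours of compound exposure.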 It is filed as functional, cell-based.
Test [11] in a line: antimalarial activity against Dd2 parasites – SYBR Green fluorescence, erythrocytes, dry powder, set 2, dose response (AID 1159574). Type of test: functional, cell-based.
Test [12] is described as follows: Dd2 malaria parasite growth inhibition potency – SYBR Green, dry powder samples, dose response (AID 1159566).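 Also: potency for growth inhibition with lower SYBR green DNA signal.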 Type of test: functional, cell-based.
Test [13] in a line: cytotoxicity toward HCT116 cells – cell-based, CellTiter-Glo luminescence, IC50, dose response (AID 1117332). It is filed as functional. To be noted: HCT-116.
The nature of test [14]: HCT116 cell viability decrease, GSK3B pretreatment – CellTiter-Glo, IC50, dose response (AID 1117339). Type of test: functional. Conditions: HCT-116.
Test [15] can be described thus: RKO cell viability reduction, dose response, CellTiter-Glo luminescence (AID 1117322). It is filed as functional.
A short description of test [16]: cytotoxicity toward HT-29 cells – cell-based, CellTiter-Glo luminescence, IC50, dose response (AID 1117330). It is filed as functional. Background: ATP-based viability assays read luminescence as a measure of living cells.
Test [17] can be described thus: CellTiter-Glo luminescence survival assay, SW480 colon tumor line, concentration-response curve, half-maximal inhibitory concentration (AID 1117338). Type of test: functional.
Test [18] can be described thus: SNU-C1 cell viability reduction, dose response, CellTiter-Glo luminescence (AID 1117323). Type of test: functional, cell-based.
A short description of test [19]: cytotoxicity toward Colo320 cells – cell-based, CellTiter-Glo luminescence, IC50, dose response (AID 1117334). It is filed as functional. To be noted: COLO 320.
The nature of test [20]: Reduced DLD-1 viability, concentration-response, CellTiter-Glo luminescence (AID 1117352). Type of test: functional.

Calls of active or inactive are those of the source. A value given as a limit tells only on which side of the number the result lay.

Take `O=C(O)c1cccc(Cn2c(Cl)c(/C=N/NC(=O)c3cc4ccccc4cc3O)sc2=O)c1`: the half-maximal inhibitory concentration (IC50) (usually the concentration that inhibits the measured activity by half) was > 50000 nM (not active) in test [1]; 134000 nM (active) in [2]; 3740 nM (active) in [3]; 1860 nM (active) on SUMO-activating enzyme [4]; 24100 nM (active) on SUMO-activating enzyme [5]. Moreover, at Caspase-6, the half-maximal activity concentration (AC50) (commonly the concentration giving half of the maximal activity seen) is 18100 nM (active).

Regarding `Cc1ccc(/C=N/NC(=O)c2csc(C)c2)o1`, the EC50 – broadly, the midpoint of the concentration-response curve – at Transthyretin was > 167000 nM (inactive).

For the compound `COC(=O)C1=C(C)N(Cc2cccc(C(F)(F)F)c2)C(NCc2cc(OC)c(OC)c(OC)c2)=NC1c1ccccc1C(F)(F)F` (configuration not stated), the IC50 in [6] was > 96600 nM (inactive).

Take `COc1cccc(C#Cc2ccc([C@H]3[C@@H](CO)N4C(=O)CN(C(=O)Cc5ccccc5)C[C@H]34)cc2)c1`: the AC50 in test [7] was 36.3 nM (active); in test [8] it was 21100 nM (active); in test [9], < 300 nM (active); in test [10] it was 114 nM (active); in test [11], 19.5 nM (active); in test [12], 30.1 nM (active).

`O=C(Nc1ccc(Br)cc1)c1cc(Br)c(Br)s1` [TIBROFAN]: the IC50 was 541 nM (active) in [13]; 342 nM (active) in test [14]; 431 nM (active) in test [15]; 520 nM (active) in test [16]; 123 nM (active) in test [17]; 1100 nM (active) in [18]. The IC50 is 18 nM (active) in test [19] and 335 nM (active) in test [20].

(Values after ChEMBL document CHEMBL1201862, “PubChem BioAssay data set” (2004).)
